In this experiment the target is Histone acetyltransferase KAT2B (Homo sapiens, UniProt Q92831). Put plainly: Binding affinity to human partial length PCAF bromodomain expressed in mammalian expression system by BROMOscan method.
Histone acetyltransferase KAT2B, sequence (Q92831 whole entry): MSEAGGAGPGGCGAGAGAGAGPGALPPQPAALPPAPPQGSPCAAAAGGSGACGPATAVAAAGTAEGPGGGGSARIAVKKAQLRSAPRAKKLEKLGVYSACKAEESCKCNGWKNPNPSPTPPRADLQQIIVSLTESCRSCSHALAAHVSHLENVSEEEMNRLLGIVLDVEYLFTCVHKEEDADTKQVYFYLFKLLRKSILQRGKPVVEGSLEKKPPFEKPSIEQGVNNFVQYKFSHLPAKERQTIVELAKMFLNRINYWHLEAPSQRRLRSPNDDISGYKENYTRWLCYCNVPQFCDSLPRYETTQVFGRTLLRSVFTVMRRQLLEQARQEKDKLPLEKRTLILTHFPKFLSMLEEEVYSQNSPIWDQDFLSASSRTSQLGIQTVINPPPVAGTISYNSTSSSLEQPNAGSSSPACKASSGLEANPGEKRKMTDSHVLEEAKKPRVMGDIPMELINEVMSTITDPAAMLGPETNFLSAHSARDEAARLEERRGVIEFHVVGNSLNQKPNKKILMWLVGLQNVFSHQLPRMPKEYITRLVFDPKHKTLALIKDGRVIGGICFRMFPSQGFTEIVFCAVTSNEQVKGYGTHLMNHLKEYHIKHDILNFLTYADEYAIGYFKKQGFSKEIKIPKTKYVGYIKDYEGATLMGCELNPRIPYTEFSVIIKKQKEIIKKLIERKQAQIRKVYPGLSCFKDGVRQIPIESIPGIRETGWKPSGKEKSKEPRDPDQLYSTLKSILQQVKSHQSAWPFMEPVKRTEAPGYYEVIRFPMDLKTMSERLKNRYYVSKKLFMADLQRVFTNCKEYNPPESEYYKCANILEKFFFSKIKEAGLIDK

Regarding `CN1C[C@H](Nc2cnn(C)c(=O)c2Br)C[C@H](c2ccccc2)C1`, the inhibition constant (Ki) turned out to be 1.26 nM.

What is called Ki is the equilibrium dissociation constant of an inhibitor or competing ligand from its target.

(Values after BindingDB's records for doi:10.1021/acs.jmedchem.6b01566 (Glaxosmithkline, 2017).)
